{"source": "patent US12115373B2", "about": "“Methods for reducing the risk of strokes by pharmacotherapy to reduce the number and duration of atrial fibrillations” (Xyra, LLC, priority 2022, dated 2024)", "key": {"[1]": {"system": "patients with either paroxysmal or persistent AFib", "experiment": "Clinical trial: episodes of longer duration AFib (>24 hrs), pacemaker monitoring (Example 3)", "assay_type": "in vivo", "settings": "2-week period; for Episodes of AFib > 24 hrs: Duration / Episodes of AFib > 24 hrs: Number: 6 patients", "experimental": "(§1) This example is a clinical trial evaluation of budiodarone in treating 6 patients with either paroxysmal or persistent AFib who previously evidenced episodes of long duration AFib (greater than 24 hrs). In this example, the patients' heart rhythms were continuously monitored over a twelve-week period with a pacemaker (surgically invasive procedure) and were treated with different doses (2 weeks each) of budiodarone. In addition, during this trial, the patients were under continuous monitoring and constant clinician supervision.\nThe purpose of this example is to establish whether budiodarone treatment can reduce longer duration AFib (AFib episodes lasting more than 24 hours) in a clinical study setting and using a pacemaker to evaluate heart rhythm.\n“Number” indicates the number of longer duration episodes of AFib (i.e., having a duration of greater than 24 hours). “Duration” indicates the amount of time during the 2-week period spent in the longer duration indicated in hours and a percentage relative to the baseline measurement. As per the above results, 200 mg b.i.d. was sufficient to treat all patients in the study by eliminating the number of episodes of AFib lasting over 24 hours. In this case, dose escalation was not required to improve patient efficacy as the 200 mg bid doses of budiodarone were sufficient to eliminate these long duration episodes of AFib."}, "[2]": {"system": "patients with either paroxysmal or persistent AFib", "experiment": "Clinical trial: episodes of long duration AFib (>5 hrs), pacemaker monitoring (Example 4)", "assay_type": "in vivo", "settings": "for Episodes of AFib > 5 hrs: Duration, percentage relative to the baseline / Episodes of AFib > 5 hrs: Duration / Episodes of AFib > 5 hrs: Number: 2 week period; for Episodes of AFib > 5 hrs: Duration / Episodes of AFib > 5 hrs: Number: 6 patients", "experimental": "as §1, with “5” for “24”\nThe purpose of this example is to establish whether budiodarone reduces long duration AFib lasting more than 5 hours in a clinical study setting using a pacemaker to evaluate the heart rhythm.\n“Number” indicates the number of long duration episodes of AFib having a duration of greater than 5 hours. “Duration” indicates the amount of time during the 2 week period spent in the greater than 5 hour duration AFib, indicated in hours and a percentage relative to the baseline measurement. […] Finally, the 800 mg bid performed best. In all doses, the reduction in episodes of AFib of greater than 5 hours were above 85% and the corresponding reduction in AFib burden was above 90%."}, "[3]": {"system": "patients with either paroxysmal or persistent AFib", "experiment": "Clinical trial: episodes of long duration AFib (>1 hr), pacemaker monitoring (Example 5)", "assay_type": "in vivo", "settings": "2 week period; for Episodes of AFib > 1 hrs: Duration / Episodes of AFib > 1 hrs: Number: 6 patients", "experimental": "as §1, with “1 hour).” for “24 hrs).”\nThe purpose of this example is to establish whether budiodarone reduces long duration AFib (duration >1 hr) in a clinical study setting using a pacemaker to evaluate the heart rhythm.\nAs above, “Number” indicates a number of long duration AFib episodes during the 2 week period, and “Duration” indicates a number of hours during the 2 week period sent in the long duration AFib episodes"}, "[4]": {"system": "patients", "experiment": "Clinical trial: longest duration episode of AFib at each dose, per subject (Example 7)", "assay_type": "in vivo", "settings": "for longest duration episode of AFib / longest duration episode of AFib, Total: 2 Weeks; for longest duration episode of AFib, Total: Total of subjects", "description": "This example is a clinical trial evaluation of 6 patients treated with different doses of budiodarone each for a two-week period to determine the longest duration episode of AFib experienced at each dose. In this example, the patients' heart rhythms were continuously monitored over a twelve-week period with a pacemaker."}, "[5]": {"settings": "in vivo; cited from earlier work"}}}
{"smiles": "CC[C@H](C)OC(=O)Cc1oc2ccccc2c1C(=O)c1cc(I)c(OCCN(CC)CC)c(I)c1", "note": "[budiodarone, (S)-sec-butyl2-(3-(4-(2-(diethylamino)ethoxy)-3,5-diiodobenzoyl)benzofuran-2-yl)acetate]", "values": [{"measurement": "Episodes of AFib > 24 hrs: Duration, percentage relative to the baseline", "setting": "[1]; 200 mg bid", "value": "(0%)"}, {"measurement": "Episodes of AFib > 24 hrs: Duration", "setting": "[1]; 200 mg bid", "value": 0, "unit": "h"}, {"measurement": "Episodes of AFib > 24 hrs: Number", "setting": "[1]; 200 mg bid", "value": 0}, {"measurement": "Episodes of AFib > 24 hrs: Duration, percentage relative to the baseline", "setting": "[1]; 400 mg bid", "value": "(0%)"}, {"measurement": "Episodes of AFib > 24 hrs: Duration", "setting": "[1]; 400 mg bid", "value": 0, "unit": "h"}, {"measurement": "Episodes of AFib > 24 hrs: Number", "setting": "[1]; 400 mg bid", "value": 0}, {"measurement": "Episodes of AFib > 24 hrs: Duration, percentage relative to the baseline", "setting": "[1]; 600 mg bid", "value": "(0%)"}, {"measurement": "Episodes of AFib > 24 hrs: Duration", "setting": "[1]; 600 mg bid", "value": 0, "unit": "h"}, {"measurement": "Episodes of AFib > 24 hrs: Number", "setting": "[1]; 600 mg bid", "value": 0}, {"measurement": "Episodes of AFib > 24 hrs: Duration, percentage relative to the baseline", "setting": "[1]; 800 mg bid", "value": "(0%)"}, {"measurement": "Episodes of AFib > 24 hrs: Duration", "setting": "[1]; 800 mg bid", "value": 0, "unit": "h"}, {"measurement": "Episodes of AFib > 24 hrs: Number", "setting": "[1]; 800 mg bid", "value": 0}, {"measurement": "Episodes of AFib > 5 hrs: Duration, percentage relative to the baseline", "setting": "[2]; 200 mg bid", "value": "(3.5%)"}, {"measurement": "Episodes of AFib > 5 hrs: Duration", "setting": "[2]; 200 mg bid", "value": 17, "unit": "h"}, {"measurement": "Episodes of AFib > 5 hrs: Number", "setting": "[2]; 200 mg bid", "value": 3}, {"measurement": "Episodes of AFib > 5 hrs: Duration, percentage relative to the baseline", "setting": "[2]; 400 mg bid", "value": "(7.7%)"}, {"measurement": "Episodes of AFib > 5 hrs: Duration", "setting": "[2]; 400 mg bid", "value": 38, "unit": "h"}, {"measurement": "Episodes of AFib > 5 hrs: Number", "setting": "[2]; 400 mg bid", "value": 4}, {"measurement": "Episodes of AFib > 5 hrs: Duration, percentage relative to the baseline", "setting": "[2]; 600 mg bid", "value": "(2.8%)"}, {"measurement": "Episodes of AFib > 5 hrs: Duration", "setting": "[2]; 600 mg bid", "value": 14, "unit": "h"}, {"measurement": "Episodes of AFib > 5 hrs: Number", "setting": "[2]; 600 mg bid", "value": 2}, {"measurement": "Episodes of AFib > 5 hrs: Duration, percentage relative to the baseline", "setting": "[2]; 800 mg bid", "value": "(1%)"}, {"measurement": "Episodes of AFib > 5 hrs: Duration", "setting": "[2]; 800 mg bid", "value": 5, "unit": "h"}, {"measurement": "Episodes of AFib > 5 hrs: Number", "setting": "[2]; 800 mg bid", "value": 1}, {"measurement": "corresponding reduction in AFib burden (episodes > 5 hours)", "setting": "[2]; in all doses (200-800 mg bid)", "value": "above 90%"}, {"measurement": "reduction in episodes of AFib of greater than 5 hours", "setting": "[2]; in all doses (200-800 mg bid)", "value": "above 85%"}, {"measurement": "Episodes of AFib > 1 hrs: Duration, percent of Off Drug (baseline)", "setting": "[3]; 200 mg bid", "value": "(10%)"}, {"measurement": "Episodes of AFib > 1 hrs: Duration", "setting": "[3]; 200 mg bid", "value": 60, "unit": "h"}, {"measurement": "Episodes of AFib > 1 hrs: Number", "setting": "[3]; 200 mg bid", "value": 22}, {"measurement": "Episodes of AFib > 1 hrs: Duration, percent of Off Drug (baseline)", "setting": "[3]; 400 mg bid", "value": "(9.3%)"}, {"measurement": "Episodes of AFib > 1 hrs: Duration", "setting": "[3]; 400 mg bid", "value": 56, "unit": "h"}, {"measurement": "Episodes of AFib > 1 hrs: Number", "setting": "[3]; 400 mg bid", "value": 12}, {"measurement": "Episodes of AFib > 1 hrs: Duration, percent of Off Drug (baseline)", "setting": "[3]; 600 mg bid", "value": "(4.3%)"}, {"measurement": "Episodes of AFib > 1 hrs: Duration", "setting": "[3]; 600 mg bid", "value": 26, "unit": "h"}, {"measurement": "Episodes of AFib > 1 hrs: Number", "setting": "[3]; 600 mg bid", "value": 6}, {"measurement": "Episodes of AFib > 1 hrs: Duration, percent of Off Drug (baseline)", "setting": "[3]; 800 mg bid", "value": "(2.5%)"}, {"measurement": "Episodes of AFib > 1 hrs: Duration", "setting": "[3]; 800 mg bid", "value": 15, "unit": "h"}, {"measurement": "Episodes of AFib > 1 hrs: Number", "setting": "[3]; 800 mg bid", "value": 6}, {"measurement": "dose required to eliminate all episodes of long duration AFib (>5 hrs)", "setting": "[4]; Subject 1", "value": 800, "unit": "mg bid"}, {"measurement": "longest duration episode of AFib", "setting": "[4]; Subject 1, 200 mg bid", "value": 5, "unit": "h"}, {"measurement": "longest duration episode of AFib", "setting": "[4]; Subject 1, 400 mg bid", "value": 8, "unit": "h"}, {"measurement": "longest duration episode of AFib", "setting": "[4]; Subject 1, 600 mg bid", "value": 7, "unit": "h"}, {"measurement": "longest duration episode of AFib", "setting": "[4]; Subject 1, 800 mg bid", "value": 3, "unit": "h"}, {"measurement": "longest duration episode of AFib", "setting": "[4]; Subject 2, 200 mg bid", "value": 6, "unit": "h"}, {"measurement": "longest duration episode of AFib", "setting": "[4]; Subject 2, 400 mg bid", "value": 13, "unit": "h"}, {"measurement": "longest duration episode of AFib", "setting": "[4]; Subject 2, 600 mg bid", "value": 0, "unit": "h"}, {"measurement": "longest duration episode of AFib", "setting": "[4]; Subject 2, 800 mg bid", "value": 5, "unit": "h"}, {"measurement": "longest duration episode of AFib", "setting": "[4]; Subject 3, 200 mg bid", "value": 7, "unit": "h"}, {"measurement": "longest duration episode of AFib", "setting": "[4]; Subject 4, 200 mg bid", "value": 0, "unit": "h"}, {"measurement": "longest duration episode of AFib", "setting": "[4]; Subject 4, 400 mg bid", "value": 2, "unit": "h"}, {"measurement": "longest duration episode of AFib", "setting": "[4]; Subject 4, 600 mg bid", "value": 2, "unit": "h"}, {"measurement": "longest duration episode of AFib", "setting": "[4]; Subject 4, 800 mg bid", "value": 1, "unit": "h"}, {"measurement": "longest duration episode of AFib", "setting": "[4]; Subject 5, 200 mg bid", "value": 3, "unit": "h"}, {"measurement": "longest duration episode of AFib", "setting": "[4]; Subject 5, 400 mg bid", "value": 2, "unit": "h"}, {"measurement": "longest duration episode of AFib", "setting": "[4]; Subject 5, 600 mg bid", "value": 0.8, "unit": "h"}, {"measurement": "longest duration episode of AFib", "setting": "[4]; Subject 5, 800 mg bid", "value": 1.6, "unit": "h"}, {"measurement": "dose required to eliminate all episodes", "setting": "[4]; Subject 6", "value": 600, "unit": "mg bid"}, {"measurement": "longest duration episode of AFib", "setting": "[4]; Subject 6, 200 mg bid", "value": 6, "unit": "h"}, {"measurement": "longest duration episode of AFib", "setting": "[4]; Subject 6, 400 mg bid", "value": 10, "unit": "h"}, {"measurement": "longest duration episode of AFib", "setting": "[4]; Subject 6, 600 mg bid", "value": 0, "unit": "h"}, {"measurement": "longest duration episode of AFib", "setting": "[4]; Subject 6, 800 mg bid", "value": 3, "unit": "h"}, {"measurement": "dose sufficient to eliminate all episodes of long duration AFib (>5 hrs)", "setting": "[4]; Subjects 4 and 5", "value": 200, "unit": "mg twice a day"}, {"measurement": "longest duration episode of AFib, Total", "setting": "[4]; 200 mg bid", "value": 21, "unit": "h"}, {"measurement": "longest duration episode of AFib, Total", "setting": "[4]; 400 mg bid", "value": 33, "unit": "h"}, {"measurement": "longest duration episode of AFib, Total", "setting": "[4]; 600 mg bid", "value": 7.8, "unit": "h"}, {"measurement": "longest duration episode of AFib, Total", "setting": "[4]; 800 mg bid", "value": 13.6, "unit": "h"}, {"measurement": "increase in the QT interval", "setting": "[5]", "value": "without a significant increase in the QT interval"}]}
